{
  "source": "patent US10112974B2",
  "about": "“Method for the production of 18F-labeled active esters and their application exemplified by the preparation of a PSMA-specific PET-tracer” (Max-Planck-Gesellschaft zur Foerderung der Wissenschaften …, priority 2014, dated 2018)",
  "key": {"[1]": {"assay": "Storage and solution stability of iodonium iodide 22", "assay_type": "physicochemical"}, "[2]": {"system": "LNCaP-C4-2 prostate tumor cells", "protocol": "Five 8-week-old male C.B-Igh-1b/IcrTac-Prkdcscid mice (Taconic) were injected subcutaneously in the neck region with 4×10^6 LNCaP-C4-2 prostate tumor cells. […] The first PET measurement was immediately followed by a CT scan during which the animal was left in the same position. Both tracers were injected i.v. through the lateral tail vein ([^18F]1-10: 21-32 MBq; [^68Ga]HBED-CC: 19-33 MBq, on two consecutive days). Emission data collection started 60 min after injection and lasted 45 min. Image reconstruction was performed using Fourier rebinning and an ordered subset expectation maximization (3D-OSEM) procedure, yielding images with voxel sizes of 0.78×0.78×0.80 mm. Image analysis was performed with VINCI 4.0 (MPI for Metabolism Research, Cologne, Germany). Tracer uptake in the tumor as well as liver, kidney, and background was determined using volumes of interest (VOIs) covering the respective structure. Significant differences were assessed using two-way repeated measures ANOVA with factors “structure” and “tracer”, followed by Holm-Sidak post hoc comparison. Tumor sizes were measured by drawing accurate tumor VOIs in the CT images, and extracting VOI volume. Tracer uptake was correlated tumor size using the Pearson correlation test."}, "[3]": {"system": "PSMA positive prostate tumor xenografts", "details": "PSMA positive prostate tumor xenografts in mice; clear delineation; cited from earlier work"}},
  "data": [
    {"smiles": "COc1ccc([I+]c2ccc(C(=O)Oc3c(F)c(F)cc(F)c3F)cc2)cc1.[I-]", "note": "[Compound 22, (4-Methoxyphenyl) [4-(2,3,5,6-tetrafluorophenoxycarbonyl)phenyl]iodonium iodide]", "values": [
      {"measurement": "stability in solution", "setting": "[1]; in solution, especially at elevated temperatures, in DMF or DMSO already at ambient temperature", "value": "unstable"},
      {"measurement": "storage stability", "setting": "[1]; stored at 4° C. under argon", "value": "≥ 4", "unit": "months"}
    ]},
    {"smiles": "O=C(O)CCC(NC(=O)NC(CCCCNC(=O)c1ccc([18F])nc1)C(=O)O)C(=O)O", "note": "(stereo not drawn) [[^18F]1-10, 2-(3-{1-carboxy-5-[(6-[^18F]fluoro-pyridine-3-carbonyl)-amino]-pentyl}-ureido)-pentanedioic acid]", "values": [
      {"measurement": "tumor tracer uptake", "setting": "[2]; PET 60 min after i.v. injection, 45 min emission, LNCaP-C4-2 xenograft mice, tumor VOI", "value": "1.4±1.7", "unit": "% ID/g"},
      {"measurement": "Signal-to-noise ratio (tumor versus background)", "setting": "[2]; PET 60 min after i.v. injection, LNCaP-C4-2 xenograft mice", "value": "5.9±4.2"},
      {"measurement": "uptake in the kidney", "setting": "[2]; PET 60 min after i.v. injection, kidney VOI", "value": "3.0±1.9", "unit": "% ID/g"},
      {"measurement": "liver uptake", "setting": "[2]; PET 60 min after i.v. injection, liver VOI", "value": "1.1±0.5", "unit": "% ID/g"},
      {"measurement": "imaging characteristics compared to [^68Ga]HBED-CC (50)", "setting": "[2]; PSMA^+ PCa mice model", "value": "nearly identical"},
      {"measurement": "kidney uptake compared to [^68Ga]HBED-CC (50)", "setting": "[2]; PSMA^+ PCa mice model", "value": "much lower"},
      {"measurement": "tumor to background ratio", "setting": "[3]", "value": "excellent"}
    ]}
  ]
}
